For data set [1], the system named is colon carcinoma lines that carry the 677C/T mutation in MTHFR. Kind of data set: Methotrexate added to colon carcinoma lines in culture (cell kill), lines with the MTHFR mutation. It counts as cell-based. To be noted: colon carcinoma lines with the 677C/T MTHFR mutation; read-out: IC50 (concentration needed to kill half the cells). The protocol:
(§1) Various doses of methotrexate (a drug used in treatment of cancer and arthritis, possibly other diseases) were added to colon carcinoma lines in culture. […] To extrapolate to the human condition, patients with this MTHFR mutation might require lower doses of methotrexate for therapy, or might be subject to methotrexate toxicity at high doses.

Data set [2] concerns colon carcinoma lines that do not carry the 677C/T mutation in MTHFR. Description: Methotrexate added to colon carcinoma lines in culture (cell kill), lines without the MTHFR mutation. Particulars: colon carcinoma lines without the 677C/T MTHFR mutation; read-out: IC50 (concentration needed to kill half the cells). It counts as cell-based. The protocol:
as §1

The next data set deals with human MTHFR. Description: Enzymatic and thermolability assay of E. coli extracts expressing wild-type or mutagenized MTHFR cDNA. It is filed as biochemical.

Experimental for human MTHFR: Overnight cultures of JM105™ containing vector alone, vector+wild-type MTHFR cDNA, or vector+mutagenized cDNA were grown at 370° C. in 2×YT media with 0.05 mg/ml ampicillin. Fresh 10 ml. cultures of each were inoculated with approximately 50 μL of overnight cultures for a starting O.D. of 0.05, and were grown at 370° C. to an O.D. of 1 at 420 nM. Cultures were then induced for 2 hrs. with 1 mM IPTG and pelleted. The cells were resuspended in TE buffer with 2 μg/ml aprotinin and 2 μg/ml leupeptin (3.5×wet weight of cells). Cell suspensions were sonicated on ice for 3×15 sec. to break open cell membranes and then centrifuged for 30 min. at 4° C. to pellet cell debris and unlysed cells. The supernatant was removed and assayed for protein concentration with the Bio-Rad™ protein assay. […] Enzymatic assays were performed by established procedures; pre-treating the extracts at 46° C. for 5 min. before determining activity assessed thermolability. Specific activities (nmol formaldehyde/hr./mg. protein) were calculated for the 2 cDNA-containing constructs after subtraction of the values obtained with vector alone (to subtract background E. Coli MTHFR activity).

`CN(Cc1cnc2nc(N)nc(N)c2n1)c1ccc(C(=O)N[C@@H](CCC(=O)O)C(=O)O)cc1` [methotrexate]: the IC50 in data set [1] was approximately 20 nM; in data set [2], approximately 150 nM.
Take “MTHFR: recombinant human methylenetetrahydrofolate reductase, about 70 kDa, expressed in E. coli from the wild-type 2.2 kb cDNA”: the “mean specific activity before heating” value in the data set on human MTHFR (Exp. 1, vector-alone value subtracted) is 3.8 nmol formaldehyde/hr./mg. protein; with human MTHFR (Exp. 2, vector-alone value subtracted), 6.2 nmol formaldehyde/hr./mg. protein.

The values are drawn from patent publication US20050221355A1, “cDNA for human methylenetetrahydrofolate reductase and uses thereof” (McGill University, priority 1994, published 2005).
